Data taken from patent US6518423B1, “Benzopiperidine derivatives” (Eisai Co., Ltd., priority 1996, dated 2003).
Where a name gives a salt, the structure may show the parent alone. Read-outs that look alike come from different tables or passages of the source.

Experiments:
ICAM-1 = assay: Effect on the expression of ICAM-1 in human cultured umbilical cord endothelial cells (TNF-stimulated, ELISA); format: cell-based; conditions: 1 ng/ml TNF, expression with TNF = 100%, without TNF = 0%, read-out: IC50 (50% inhibitory concentration of ICAM-1 expression)
Experimental: Effect on the Expression of ICAM-1 in Human Cultured Umbilical Cord Endothelial Cells
Examination was made on the effect on the expression of ICAM-1 which is one of adhesion molecules expressed on the surfaces of cultured endothelia cells. The endotheliall cells were suspended in an MCDB131 medium containing 10% of fetal calf serum and pipetted into a 96-well culture plate (10,000 cells/well). After culturing at 37° C. in the presence of 5% of carbon dioxide for 2 days, 1 ng/ml of a tumor necrosis factor (TNF) and a test compound were added to the 96-well culture plate. After culturing at 37° C. in the presence of 5% of carbon dioxide for 4 hours and then washing with a phosphate buffer once, 0.05% of glutaraldehyde was added thereto. Six minutes thereafter, the plate was washed twice and 1 μg/ml of a mouse antihuman ICAM-1 antibody was added thereto. After allowing to stand for 1 hour, it was washed twice and a peroxidase-labeled sheep antimouse immunoglobulin antibody was added thereto. After allowing to stand for 1 hour, it was washed twice and a color developing substrate for peroxidase (o-phenylenediamine) was added thereto. After allowing to stand at room temperature for 10 minutes, a 1 N solution of sulfuric acid was added thereto. Then the absorbance at 490 nm was measured with the use of an absorptiometer for 96-well plate. The value thus obtained was employed as an indication of the ICAM-1 expression.

[1] = test system: Carrageenin-induced Rat Pleurisy; assay: Effect on carrageenin-induced rat pleurisy; format: in vivo; conditions: Rattus norvegicus, po, 5 h, total cell count in pleural exudate 5 hours after carrageenin, read-out: Inhibitory ratio (%); for inhibition in vivo at 10 mg/kg: dose 10 mg/kg orally 30 minutes before carrageenin; for inhibition in vivo at 30 mg/kg: dose 30 mg/kg orally 30 minutes before carrageenin
Experimental: Effect on Carrageenin-induced Rat Pleurisy
200 μl of a carrageenin solution (10 mg/ml in physiological saline) was intrathoracically injected into rats. Five hours thereafter, blood of the animals was collected from the abdominal aorta under etherization so as to induce death from blood loss. The exudate was taken up from the thoracic cavity and weighed with a single-pan balance. Further, the exudate was diluted with Turk's solution and the cells were counted by using a counting chamber. Next the total cell count was calculated by multiplying the cell count by the exudate volume. Thus the inhibitory ratio was calculated by taking the total cell count with the administration of carrageenin as 100% and that with the administration of physiological saline as 0%. Each test compound was suspended in a 0.5% solution of methylcellulose and orally administered at a dose of 5 ml/kg 30 minutes before the injection of carrageenin.

[2] = Homo sapiens, Endothelial cell, 4 h

Compound	IC50 (ICAM-1; [2]) [nM]	inhibition in vivo at 10 mg/kg [1] [%]	inhibition in vivo at 30 mg/kg [1] [%]	inhibition in vivo at 100 mg/kg ([1]; dose 100 mg/kg orally 30 minutes before carrageenin) [%]	IC50 (ICAM-1; 4 hours) [nM]
CNS(=O)(=O)NC1CCN(Cc2ccc3c(c2)Nc2nccnc2S3)CC1 [Example 403]	340	35			
CN(C)S(=O)(=O)NC1CCN(Cc2ccc3c(c2)Nc2nccnc2S3)CC1 [Example 460]	320	57			
O=C(O)Cc1ccc(C2CCN(Cc3ccc4c(c3)Nc3nccnc3S4)CC2)cc1 [Example 659]	710	20			
O=C(O)CC1CC2(CCN(Cc3ccc4c(c3)Nc3nccnc3S4)CC2)C1 [Example 677]	900	76			
O=C(O)C1CC2(CCN(Cc3ccc4c(c3)Nc3nccnc3S4)CC2)C1 [Example 686]	900	71			
O=C(O)C1(C2CCN(Cc3ccc4c(c3)Nc3nccnc3S4)CC2)CC1 [Example 698]	490	26			
O=C(O)CC1CCC2CN(Cc3ccc4c(c3)Nc3nccnc3S4)CC2C1 (stereo not shown) [Example 717]	1150	32			
CC(CCC1CCN(Cc2ccc3c(c2)Nc2nccnc2S3)CC1)C(=O)O (stereo not shown) [Example 729]	1300	64			
c1cncc(NCc2ccc3c(c2)Nc2nccnc2S3)c1 [Example 901, 8-[N-(Pyridin-3-yl)aminomethyl]-10H-pyrazino[2,3-b][1,4]benzothiazine]	1800		38		
OC(c1cccnc1)c1ccc2c(c1)Nc1nccnc1S2 (stereo not shown) [Example 1145]	770	29			
NCc1ccc2c(c1)Nc1nccnc1S2 [Example 1241, 8-(Aminomethyl)10H-pyrazino[2,3-b][1,4]benzothiazine hydrochloride]	3600			28	
CC(C)(O)c1ncnc2c1ncn2Cc1ccc2c(c1)Nc1nccnc1S2 [Example 1439]	490		77		
N#C/N=C(\N)Cc1ccc2c(c1)Nc1nccnc1S2 [Example 1487, N^2-Cyano-(10H-pyrazino[2,3-b][1,4]benzothiazin-8-yl)acetamidine]	670		32		
O=C(O)CC1C2CCCC1CN(Cc1ccc3c(c1)Nc1nccnc1S3)C2 (stereo not drawn) [Example 1568, (endo,anti)-[3-(10H-Pyrazino[2,3-b][1,4]benzothiazin-8-ylmethyl)-3-azabicyclo[3.3.1]non-9-yl]acetic acid]			50		500
